US7135572B2 (CJ Corp, priority 2001, dated 2006)

Tests used:
cyclooxygenase-2 = target: T1, cyclooxygenase-2 (Mus musculus, UniProt Q05769); test: Inhibition of cyclooxygenase-2 in Raw 264.7 cells treated with interferon γ and LPS (PGE2 EIA); format: cell-based; conditions: for Inhibitory effects of cyclooxygenase (COX): COX-2: Raw 264.7 cells
T1 construct: endogenous in cells; host or cells: Raw 264.7 (Korean cell line bank), aspirin-pretreated, induced with interferon gamma and LPS
T1 sequence (Q05769 18-604): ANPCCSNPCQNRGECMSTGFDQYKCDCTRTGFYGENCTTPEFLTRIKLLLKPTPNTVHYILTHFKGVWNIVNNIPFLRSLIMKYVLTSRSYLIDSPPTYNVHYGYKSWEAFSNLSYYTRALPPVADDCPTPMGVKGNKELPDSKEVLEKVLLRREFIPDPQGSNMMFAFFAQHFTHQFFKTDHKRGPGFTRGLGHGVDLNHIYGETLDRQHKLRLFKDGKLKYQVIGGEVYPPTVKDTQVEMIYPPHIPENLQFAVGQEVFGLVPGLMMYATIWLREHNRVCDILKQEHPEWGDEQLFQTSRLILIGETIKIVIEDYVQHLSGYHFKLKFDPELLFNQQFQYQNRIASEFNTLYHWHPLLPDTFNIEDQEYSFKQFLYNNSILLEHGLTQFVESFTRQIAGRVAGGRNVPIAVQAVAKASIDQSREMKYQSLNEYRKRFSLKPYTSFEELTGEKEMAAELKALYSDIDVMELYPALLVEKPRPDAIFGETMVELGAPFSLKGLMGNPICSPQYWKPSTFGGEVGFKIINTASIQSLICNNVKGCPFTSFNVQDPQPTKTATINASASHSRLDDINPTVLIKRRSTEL
Method: (§1) In order to investigate pharmacologically the selective inhibition activity against cyclooxygenase-2 enzyme, the inhibitive effects against cyclooxygenase-1 and cyclooxygenase-2 were measured by two methods as follows.
And then, each samples were replaced with new media and cultured for 30 minutes. In addition, the samples was treated with 100 units/ml of interferon Υ and 100 ng/ml of lipopolysaccharide(LPS), and cultured for 18 hours. Then, the media was transferred to other tubes and the PGE 2 was quantitated by using EIA kit from Cayman Chemicals.

cyclooxygenase-1 = target: T2, cyclooxygenase-1 (Homo sapiens, UniProt P23219); test: Inhibition of cyclooxygenase-1 in U-937 cells (PGE2 quantitation); format: cell-based; conditions: U-937 cells
T2 construct: The cultured U-937 (humane lymphoma cell, obtained from Korean cell line bank) was centrifuged to collect the pellet; endogenous in cells; host or cells: U-937 (human lymphoma cell line, Korean cell line bank)
Method: as §1
Then, the pellet was diluted with 1×HBSS(Hank's balanced salt solutin) at the concentration of 1×10^6 cells/ml, and 1 ml of them was transferred into each well of 12-well plates, and then dissolved with DMSO. 5μl of the diluted sample solution, and 5μl of DMSO vehicle were added therein and mixed, and the mixture was cultured at 37° C. in Co2 incubator for 15 minutes. Arachidonic acid as a substrate was dissolved in ethanol to prepare a stock solution with a concentration of 10 mM, followed by diluting with 1×HBSS to prepare the solution of 1 mM. 10 μl of 1 mM Arachidonic acid solution was added to each of the treated wells, and the mixture was cultured at 37° C. in CO2 incubator for 30 minutes. The cell solution of each well was collected in the centrifuge tube and was centrifuged at 4° C. for 5 minutes at 10,000 rpm. As PGE2 existed in the supernatant separated from collected cell, the concentration of PGE2 was quantitated by using monoclonal kit from Cayman Chemicals, and the concentration of samples and vehicle were compared to estimate the inhibition ratio (%) of each compound against cyclooxygenase-1. Ultimately, the inhibition effect against the cyclooxygenase-1 enzyme was obtained from the result.

T2 sequence (P23219 24-599): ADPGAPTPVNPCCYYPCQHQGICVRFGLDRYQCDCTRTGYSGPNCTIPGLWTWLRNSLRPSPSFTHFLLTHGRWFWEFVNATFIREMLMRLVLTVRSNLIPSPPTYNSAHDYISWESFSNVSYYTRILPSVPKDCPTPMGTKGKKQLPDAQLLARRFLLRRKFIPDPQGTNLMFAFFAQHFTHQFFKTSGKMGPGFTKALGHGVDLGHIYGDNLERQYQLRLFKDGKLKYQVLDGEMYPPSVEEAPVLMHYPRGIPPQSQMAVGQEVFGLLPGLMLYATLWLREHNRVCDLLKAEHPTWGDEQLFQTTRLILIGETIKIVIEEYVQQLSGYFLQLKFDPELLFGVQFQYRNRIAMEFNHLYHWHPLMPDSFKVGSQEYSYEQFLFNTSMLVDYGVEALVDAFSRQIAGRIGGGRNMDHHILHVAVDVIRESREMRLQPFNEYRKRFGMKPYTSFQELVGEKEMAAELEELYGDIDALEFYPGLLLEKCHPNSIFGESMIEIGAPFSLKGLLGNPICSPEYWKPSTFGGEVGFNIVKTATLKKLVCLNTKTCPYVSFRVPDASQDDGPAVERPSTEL

Inhibitory effects of cyclooxygenase (COX): COX-2 (cyclooxygenase-2; 30 nM) [% inhibition] | Inhibitory effects of cyclooxygenase (COX): COX-2 (cyclooxygenase-2; 100 nM) [% inhibition] | Inhibitory effects of cyclooxygenase (COX): COX-2 (cyclooxygenase-2; 300 nM) [% inhibition] | Inhibitory effects of cyclooxygenase (COX): COX-1 (cyclooxygenase-1; 3 μM) [% inhibition] | Inhibitory effects of cyclooxygenase (COX): COX-1 (cyclooxygenase-1; 10 μM) [% inhibition] | Inhibitory effects of cyclooxygenase (COX): COX-1 (cyclooxygenase-1; 30 μM) [% inhibition] | selectivity of cyclooxygenase-2 compared with the comparative substance (in words) (cyclooxygenase-2; COX-2 versus COX-1) | Compound
43.9 | 48.8 | 67.8 | 44.7 | 56.7 | 75.6 |  | Cc1nc(-c2cccc(Cl)c2)n(-c2ccc(S(N)(=O)=O)cn2)n1 [Example 21, 6-[5-(3-chloro-phenyl)-3-methyl-[1,2,4]triazole-1-yl]-pyridine-3-sulfonic acid amide]
27.3 | 29.8 | 36.2 | 15.1 | 26.8 | 31.1 |  | COc1cc(OC)cc(-c2nc(C)nn2-c2ccc(S(N)(=O)=O)cn2)c1 [Example 22, 6-[5-(3,5-dimethoxy-phenyl)-3-methyl-[1,2,4]triazole-1-yl]-pyridine-3-sulfonic acid amide]
29.7 | 38.0 | 64.4 | 1.3 | 40.8 | 71.5 |  | Cc1nc(-c2ccccc2)n(-c2ccc(S(C)(=O)=O)cc2)n1 [Example 24, 1-(4-methanesulfony-phenyl)-3-methyl-5-phenyl-1H-[1,2,4]triazole]
20.1 | 47.7 | 64.0 | 42.0 | 51.2 | 55.1 |  | Cc1nc(-c2ccc(F)cc2)n(-c2ccc(S(C)(=O)=O)cc2)n1 [Example 26, 5-(4-fluoro-phenyl)-1-(4-methanesulfonyl-phenyl)-3-methyl-1H-[1,2,4]triazole]
33.9 | 38.8 | 57.8 | 72.9 | 73.1 | 85.4 |  | Cc1nc(-c2ccc(Cl)cc2)n(-c2ccc(S(C)(=O)=O)cc2)n1 [Example 28, 5-(4-chloro-phenyl)-1-(4-methanesulfonyl-phenyl)-3-methyl-1H-[1,2,4]triazole]
27.3 | 29.8 | 36.2 | 77.6 | 79.8 | 82.1 |  | Cc1nc(-c2ccc(Br)cc2)n(-c2ccc(S(C)(=O)=O)cc2)n1 [Example 30, 5-(4-bromo-phenyl)-1-(4-methanesulfonyl-phenyl)-3-methyl-1H-[1,2,4]triazole]
69.5 | 99.8 | 99.9 | 81.4 | 82.0 | 88.1 | hardly different | Cc1nc(-c2ccc(Br)cc2)n(-c2ccc(S(C)(=O)=O)cn2)n1 [Example 31, 2-[5-(4-bromo-phenyl)-3-methyl-[1,2,4]triazole-1-yl]-5-methanesulfonyl-pyridine]
